Source: patent US20220175761A1, “BI-LIGAND DRUG CONJUGATE AND USE THEREOF” (COHERENT BIOPHARMA (SUZHOU), LIMITED, priority 2019, published 2022)
Square brackets hold non-standard residues; d marks the D form. Peptide text beside a SMILES is read from it. * marks the point of attachment. Dolaproine = CO[C@@H]([C@@H]1CCCN1)[C@@H](C)C(=O)O; Dil = CC[C@H](C)[C@H](NC)[C@@H](CC(=O)O)OC; X1 = C[C@@H](N*)[C@@H](O)c1ccccc1; NMeV = CN[C@H](C(=O)O)C(C)C

Experiments:
[1] = system: LNCaP; assay: Pharmacodynamic study 2 in CDX model; assay type: in vivo, BALB/c-nude mice; settings: 3 mg/kg D1, 8, 15, tail vein
Experimental: Experiment purpose: to perform a pharmacodynamic study of conjugate compound CB-20BK in a subcutaneous xenograft model (CDX) of humanized LNCaP, DU145 and NCI-H460 cell lines
The cells or tumor tissue mass were prepared and subcutaneously inoculated into the anterior right flank of BALB/c-nude mice. When the tumor volume expanded to 80-160 mm^3, a randomized grouping was performed, and a model control group and administration groups were set. The mice were administrated from the first day of grouping, wherein the administration dose was adjusted according to the latest weight measurement. The mice were administrated via tail vein injection at an administration volume of 10 μl/g. After grouping and administration, the effects of tumor growth and treatment on normal behaviors of animals, specifically including the activity of experimental animals, food intake and drinking status, weight gain or loss status, and other abnormal conditions in eyes, hair, etc., were monitored. After grouping and administration, the weight of mice was measured twice a week to calculate the rate of weight change; at the same time, the long diameter and short diameter of the tumor were measured with a vernier caliper, and the tumor volume, relative tumor proliferation rate, tumor volume inhibition rate and other indicators were calculated. […]

[2] = molecular target: FOLH1 (Homo sapiens, UniProt Q04609); assay: BIAcore T200: binding of FOLH1 to compound-FOLR1 complex; design: purchased Sino Biologicals (FOLH1); R&D System (FOLR1) 15877-H07H (FOLH1); 5646-FR (FOLR1)
Description: CM5 chip was conjugated with a ligand: FOLR1 (R&D System, Cat #: 5646-FR)
Analyte: CB-20BK, FA-MMAE and FOLH1 (Sino Biologicals, Cat #: 15877-H07H)
According to BIAcore T200 (GE) operating manual, FOLR1 was conjugated to the CM5 chip; CB-20BK or FA-MMAE was loaded first, and then FOLH1 was loaded; and the binding of FOLH1 to the CB-20BK-FOLR1 complex was detected.

[3] = system: KB, MIA paca-2, HCC1954, CALU-3 and DU145 cell lines (CDX tumor models); assay: Pharmacodynamic study 1 of CB-20BK in CDX models; assay type: in vivo, BALB/c-nude mice; settings: tail vein injection
Experimental: CB-20BK lyophilized powder was weighed, dissolved with PBS and prepared into a sample mother solution, and the mother solution was diluted with a physiological saline for injection to a sample solution with a working concentration for later use.
Main cell lines: KB human oral epidermoid carcinoma cells, MIA paca-2 human pancreatic cancer cells, HCC1954 human breast cancer cells, CALU-3 human lung adenocarcinoma cells and DU145 human prostate cancer cells.
Model construction: The cells were resuscitated, cultured, collected, counted, and subcutaneously injected into the right flank of BALB/c-nude mice. When the tumor grew and expanded to 80-160 mm^3, grouping and administration were performed, or rapidly expanded tumor masses were transferred and injected to mice for scale up.
Grouping: When the tumor grew to about 80-160 mm^3 on average, a grouping was performed, and a model control group and different doses of administration groups were set.
Administration: The mice were administrated via tail vein injection.
The weight of mice and the long diameter (a) and short diameter (b) of tumor mass were measured twice a week. The formula for the calculation of tumor volume (TV) is: TV=½×a×b^2.

[4] = system: NCI-H226 (human lung cancer cells); assay: Inhibition of cell line proliferation, CCK8; assay type: cell-based; settings: NCI-H226, 68-72 hours, CCK8
[5] = Body weight and clinical observation in the LU2505 study; assay type: in vivo, BALB/c nude mice; settings: 0.375 mg/kg on day 1, 8, 15, D22
Description: (§1) The active substance of test sample CBP-1018 is CB-20BK, which is obtained by mixing CB-20BK with auxiliary materials and then lyophilizing same.

[6] = system: lung cancer PDX model LU2505; assay: Effectiveness in lung cancer LU2505 model (PDX model); assay type: in vivo, BALB/c nude mice
Description: as §1

[7] = 0.375 mg/kg on day 1, 8, 15, D22

Chain of FOLH1 (Q04609 44-750 limits assumed): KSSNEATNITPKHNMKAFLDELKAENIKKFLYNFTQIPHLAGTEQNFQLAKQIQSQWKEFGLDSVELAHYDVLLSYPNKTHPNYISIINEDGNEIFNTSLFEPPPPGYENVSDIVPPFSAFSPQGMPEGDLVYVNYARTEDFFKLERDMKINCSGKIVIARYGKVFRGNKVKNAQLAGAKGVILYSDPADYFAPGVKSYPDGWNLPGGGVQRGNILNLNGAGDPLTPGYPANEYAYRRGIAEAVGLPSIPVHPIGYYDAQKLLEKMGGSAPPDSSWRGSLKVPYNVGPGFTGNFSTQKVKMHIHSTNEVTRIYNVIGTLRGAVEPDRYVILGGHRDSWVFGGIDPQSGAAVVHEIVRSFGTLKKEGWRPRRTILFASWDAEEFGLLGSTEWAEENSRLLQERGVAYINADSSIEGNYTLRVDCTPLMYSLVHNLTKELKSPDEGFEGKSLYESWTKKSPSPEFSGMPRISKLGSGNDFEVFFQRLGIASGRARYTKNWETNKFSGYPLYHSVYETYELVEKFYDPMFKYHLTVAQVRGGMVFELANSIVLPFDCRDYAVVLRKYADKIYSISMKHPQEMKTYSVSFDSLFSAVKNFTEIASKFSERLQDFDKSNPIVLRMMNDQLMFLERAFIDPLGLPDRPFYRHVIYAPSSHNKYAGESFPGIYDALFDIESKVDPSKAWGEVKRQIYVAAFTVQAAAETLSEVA
Chain of FOLH1 (P15328 25-233 partner limits assumed): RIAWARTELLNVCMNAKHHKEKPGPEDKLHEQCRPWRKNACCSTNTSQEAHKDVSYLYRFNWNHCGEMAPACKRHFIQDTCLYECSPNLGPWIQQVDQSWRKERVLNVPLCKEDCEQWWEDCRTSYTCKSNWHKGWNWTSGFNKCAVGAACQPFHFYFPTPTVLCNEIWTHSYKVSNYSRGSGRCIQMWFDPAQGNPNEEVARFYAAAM

Structure (SMILES)	Tumor growth inhibition rate (TGI) [1] [%]	Binding of compound-FOLR1 complex to FOLH1 solution ([2]; FOLH1 concentration 0.0625 μM) [RU]	Binding of compound-FOLR1 complex to FOLH1 solution ([2]; FOLH1 concentration 0.125 μM) [RU]	Binding of compound-FOLR1 complex to FOLH1 solution ([2]; FOLH1 concentration 0.25 μM) [RU]	Binding of compound-FOLR1 complex to FOLH1 solution ([2]; FOLH1 concentration 0.5 μM) [RU]	amount of FOLH1 bound to compound-FOLR1 complex (in words) ([2]; FOLH1 solution at a high concentration)	inhibitory effect in CDX tumor models (tumor volume) [3]	IC50 [4] [nM]	Weight [5] [g]	tumor growth inhibition effect (in words) ([6]; 0.375 mg/kg)	Tumor growth inhibition rate TGI % [6, 7] [%]	Tumor volume [6, 7] [mm^3]	Tumor weight ([6]; 0.375 mg/kg on day 1, 8, 15, D29)
CC[C@H](C)[C@@H]([C@@H](CC(=O)N1CCC[C@H]1[C@H](OC)[C@@H](C)C(=O)N[C@H](C)[C@@H](O)c1ccccc1)OC)N(C)C(=O)[C@@H](NC(=O)[C@H](C(C)C)N(C)C(=O)OCc1ccc(NC(=O)C(CCCNC(N)=O)NC(=O)[C@@H](NC(=O)CCCCCN2C(=O)CC(SC[C@H](NC(=O)[C@H](CCCCN)NC(=O)[C@H](CC(=O)O)NC(=O)[C@H](CC(=O)O)NC(=O)Cc3ccc(CNC(=O)NCCCC[C@H](NC(=O)N[C@@H](CCC(=O)O)C(=O)O)C(=O)O)cc3)C(=O)N[C@@H](CCCCNC(=O)CC[C@H](NC(=O)c3ccc(NCc4cnc5[nH]c(N)nc(=O)c5n4)cc3)C(=O)O)C(N)=O)C2=O)C(C)C)cc1)C(C)C (stereo partly shown) [CB-20BK]	95.68	−0.9	4.6	14.1	23.9	significantly higher than that bound to an FA-MMAE-FOLR1 complex	good inhibitory effect	–	–	–	–	–	–
CC[C@H](C)[C@@H]([C@@H](CC(=O)N1CCC[C@H]1[C@H](OC)[C@@H](C)C(=O)N[C@H](C)[C@@H](O)c1ccccc1)OC)N(C)C(=O)[C@@H](NC(=O)[C@@H](NC)C(C)C)C(C)C [MMAE, monomethyl auristatin E] (H-[NMeV]V[Dil][Dolaproine]-X1)	–	–	–	–	–	–	–	6	23.5	clear tumor growth inhibition effect	48.97	1132.61	1597.1 (D29) mg
